Laboratory results: PubChem BioAssay AID248 (DTP/NCI, 2004)
Inconclusive results and toxic doses are left out. Rule as the data show it: active = T/C of 150% or more; inactive = T/C below 125%.

Tested on: L1210 leukemia ip in BDF1 mice, survival T/C
Experiment: NCI In Vivo Anticancer Drug Screen. Data for tumor model L1210 Leukemia (intraperitoneal) in B6D2F1 (BDF1) mice
Settings: endpoint: mean survival time, higher = longer survival
In short: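 Tumor was transplanted into mice, which were then dosed with test compound or vehicle alone. Survival was recorded for each group, and the treated figure was expressed relative to the control figure.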

[1] = dose: 100.0 mg/kg/injection, schedule: Q04DX002 (ip), vehicle: Klucel (hydroxypropylcellulose) (HPC)
[2] = dose: 100.0 mg/kg/injection, schedule: Q01DX009 (ip), vehicle: Klucel (hydroxypropylcellulose) (HPC)
[3] = dose: 200.0 mg/kg/injection, schedule: Q01DX009 (ip), vehicle: Klucel (hydroxypropylcellulose) (HPC)
[4] = dose: 400.0 mg/kg/injection, schedule: Q01DX009 (ip), vehicle: Klucel (hydroxypropylcellulose) (HPC)
[5] = dose: 100.0 mg/kg/injection, schedule: Q04DX003 (ip), vehicle: Klucel (hydroxypropylcellulose) (HPC)
[6] = dose: 200.0 mg/kg/injection, schedule: Q04DX003 (ip), vehicle: Klucel (hydroxypropylcellulose) (HPC)
[7] = dose: 400.0 mg/kg/injection, schedule: Q04DX003 (ip), vehicle: Klucel (hydroxypropylcellulose) (HPC)
[8] = dose: 100.0 mg/kg/injection, schedule: Q01DX009 (ip), vehicle: saline with Tween-80
[9] = dose: 100.0 mg/kg/injection, schedule: Q04DX003 (ip), vehicle: saline with Tween-80
[10] = dose: 200.0 mg/kg/injection, schedule: Q04DX003 (ip), vehicle: saline with Tween-80
[11] = dose: 400.0 mg/kg/injection, schedule: Q04DX003 (ip), vehicle: saline with Tween-80
[12] = dose: 200.0 mg/kg/injection, schedule: Q01DX009 (ip), vehicle: saline with Tween-80

Measured: T/C

O=C1OCC/C1=C\NCCCN/C=C1\CCOC1=O
inactive: [1] 105 % of control | dose: 200.0 mg/kg/injection, schedule: Q04DX002 (ip), vehicle: Klucel (hydroxypropylcellulose) (HPC) 108 % of control | dose: 400.0 mg/kg/injection, schedule: Q04DX002 (ip), vehicle: Klucel (hydroxypropylcellulose) (HPC) 94 % of control

O=C(CN1CCOCC1)Nc1ccc(-c2ccc(NC(=O)CN3CCOCC3)cc2)cc1
inactive: dose: 100.0 mg/kg/injection, schedule: Q01DX001 (ip), vehicle: carboxymethylcellulose (CMC) 92 % of control | dose: 200.0 mg/kg/injection, schedule: Q01DX001 (ip), vehicle: carboxymethylcellulose (CMC) 97 % of control | dose: 400.0 mg/kg/injection, schedule: Q01DX001 (ip), vehicle: carboxymethylcellulose (CMC) 92 % of control

CCC(=O)OCC1CCCO1 (stereo unspecified)
inactive: [2] 103 % of control | [3] 103 % of control | [4] 101 % of control

CC(NS(=O)(=O)Cc1ccccc1)C(=O)O (stereo unspecified)
inactive: dose: 100.0 mg/kg/injection, schedule: Q01DX001 (ip), vehicle: other 96 % of control | dose: 100.0 mg/kg/injection, schedule: Q04DX003 (ip), vehicle: other 107 % of control | dose: 200.0 mg/kg/injection, schedule: Q01DX001 (ip), vehicle: other 95 % of control | dose: 200.0 mg/kg/injection, schedule: Q04DX003 (ip), vehicle: other 96 % of control | dose: 400.0 mg/kg/injection, schedule: Q01DX001 (ip), vehicle: other 104 % of control | dose: 400.0 mg/kg/injection, schedule: Q04DX003 (ip), vehicle: other 106 % of control

C=Cc1c[nH]c(=O)[nH]c1=O
inactive: dose: 25.0 mg/kg/injection, schedule: Q04DX002 (ip), vehicle: Klucel (hydroxypropylcellulose) (HPC) 94 % of control | dose: 50.0 mg/kg/injection, schedule: Q04DX002 (ip), vehicle: Klucel (hydroxypropylcellulose) (HPC) 94 % of control | [1] 102 % of control

C=CCSc1ccccc1Cl
inactive: dose: 100.0 mg/kg/injection, schedule: Q01DX001 (ip), vehicle: saline 100 % of control | dose: 200.0 mg/kg/injection, schedule: Q01DX001 (ip), vehicle: saline 103 % of control | dose: 400.0 mg/kg/injection, schedule: Q01DX001 (ip), vehicle: saline 103 % of control

C=CCSCC(=O)c1ccccc1
inactive: dose: 50.0 mg/kg/injection, schedule: Q01DX009 (ip), vehicle: Klucel (hydroxypropylcellulose) (HPC) 90 % of control | [2] 94 % of control | [5] 101 % of control | [3] 90 % of control | [6] 97 % of control | [7] 100 % of control

Clc1ccc2nc3nc(-c4ccccc4)c(-c4ccccc4)nc3nc2c1
inactive: dose: 75.0 mg/kg/injection, schedule: Q01DX001 (ip), vehicle: other 98 % of control | dose: 150.0 mg/kg/injection, schedule: Q01DX001 (ip), vehicle: other 98 % of control | dose: 300.0 mg/kg/injection, schedule: Q01DX001 (ip), vehicle: other 96 % of control

Cc1cc(=O)n(-c2ccccc2)cn1
inactive: [5] 98 % of control | [6] 89 % of control | [7] 96 % of control

O=C1c2cccc3c2C2(O)c4c1cccc4C(=O)c1cccc(c12)C3=O
inactive: [8] 101 % of control | [9] 96 % of control | dose: 132.0 mg/kg/injection, schedule: Q01DX009 (ip), vehicle: saline 101 % of control | dose: 200.0 mg/kg/injection, schedule: Q01DX009 (ip), vehicle: saline 101 % of control | [10] 100 % of control | dose: 300.0 mg/kg/injection, schedule: Q01DX009 (ip), vehicle: saline 95 % of control | [11] 102 % of control

COc1ccc2c(c1)CCC1C2=CCC2C(=O)CCC(=O)C21 (stereo unspecified)
inactive: dose: 50.0 mg/kg/injection, schedule: Q01DX001 (ip), vehicle: Klucel (hydroxypropylcellulose) (HPC) 101 % of control | dose: 100.0 mg/kg/injection, schedule: Q01DX001 (ip), vehicle: Klucel (hydroxypropylcellulose) (HPC) 101 % of control | dose: 200.0 mg/kg/injection, schedule: Q01DX001 (ip), vehicle: Klucel (hydroxypropylcellulose) (HPC) 93 % of control

CC1CCC2(O)C(O)CCCC2(C)C1C (stereo unspecified)
inactive: dose: 50.0 mg/kg/injection, schedule: Q01DX009 (ip), vehicle: saline with Tween-80 92 % of control | [8] 89 % of control | [12] 92 % of control

O=C(NCCCNC(=O)Nc1ccc(C2=NCC(O)CN2)cc1)Nc1ccc(C2=NCC(O)CN2)cc1 (stereo unspecified)
inactive: dose: 30.7 mg/kg/injection, schedule: Q01DX015 (ip), vehicle: methylcellulose (MC) 104 % of control | dose: 61.5 mg/kg/injection, schedule: Q01DX015 (ip), vehicle: methylcellulose (MC) 95 % of control

COC(=O)Cc1oc(=O)n(-c2ccccc2)c(=O)c1C(=O)OC
inactive: dose: 12.5 mg/kg/injection, schedule: Q04DX002 (ip), vehicle: gum acacia 94 % of control | dose: 25.0 mg/kg/injection, schedule: Q04DX002 (ip), vehicle: gum acacia 116 % of control | dose: 50.0 mg/kg/injection, schedule: Q04DX002 (ip), vehicle: gum acacia 108 % of control

N#CCc1ccccc1C(=O)O
inactive: dose: 100.0 mg/kg/injection, schedule: Q01DX009 (ip), vehicle: gum acacia 105 % of control | dose: 100.0 mg/kg/injection, schedule: Q04DX003 (ip), vehicle: gum acacia 96 % of control | dose: 200.0 mg/kg/injection, schedule: Q01DX009 (ip), vehicle: gum acacia 94 % of control | dose: 200.0 mg/kg/injection, schedule: Q04DX003 (ip), vehicle: gum acacia 91 % of control | dose: 400.0 mg/kg/injection, schedule: Q01DX009 (ip), vehicle: gum acacia 88 % of control | dose: 400.0 mg/kg/injection, schedule: Q04DX003 (ip), vehicle: gum acacia 97 % of control

CCCCCCCCCCCCCCCCCC[P+](CCCC)(CCCC)CCCC
inactive: dose: 0.75 mg/kg/injection, schedule: Q04DX002 (ip), vehicle: saline with Tween-80 110 % of control | dose: 1.5 mg/kg/injection, schedule: Q04DX002 (ip), vehicle: saline with Tween-80 90 % of control | dose: 3.0 mg/kg/injection, schedule: Q04DX002 (ip), vehicle: saline with Tween-80 100 % of control | dose: 3.12 mg/kg/injection, schedule: Q04DX002 (ip), vehicle: saline with Tween-80 87 % of control | dose: 6.25 mg/kg/injection, schedule: Q04DX002 (ip), vehicle: saline with Tween-80 94 % of control

C#CC1(O)CCCC(C)C1 (stereo unspecified)
inactive: [8] 102 % of control | [12] 97 % of control

COc1cc(/C=N/NC(N)=S)cc(OC)c1OC
inactive: [8] 93 % of control | [9] 108 % of control | [12] 98 % of control | [10] 110 % of control | dose: 400.0 mg/kg/injection, schedule: Q01DX009 (ip), vehicle: saline with Tween-80 104 % of control | [11] 106 % of control

O=S1(=O)N2CN3CCN(C2)CN1C3
inactive: [2] 105 % of control | [5] 95 % of control | [3] 115 % of control | [6] 103 % of control | [4] 98 % of control | [7] 98 % of control
